Results taken from ChEMBL document CHEMBL1201862, “PubChem BioAssay data set” (2004).
Calls of active or inactive are those of the source.

Key:
[1] = IC50 of Artemis nuclease activity blockers – biochemical, fluorescence intensity, dose response (AID 720701); type: functional;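 note: Artemis endonuclease enzyme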
[2] = viability loss in THP-1 monocytes – THP-1 cells, cytotoxicity control for Vif-APOBEC3G degradation inhibitor project, dose response (AID 1117359); type: functional; conditions: THP-1
[3] = viability of uninfected HEp-2 cells – cell-based, HTS, cytotoxicity control for RSV inhibitor project, dose response (AID 2410); type: functional; conditions: human respiratory syncytial virus
[4] = viability loss in human Jurkat cells – cell-based, luminescence, cytotoxicity control for P. falciparum gametocyte viability project, dose response (AID 1117277); type: functional;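 note: potency reflects loss of cellular ATP meaning fewer viable cells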
[5] = viability inhibitors of stage V gametocytes – luminescence, dose response (AID 1117278); type: functional, cell-based;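 note: gametocytes exposed to compound for 24 hours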
[6] = molecular target: T1, Histone-lysine N-methyltransferase NSD2 (Homo sapiens, UniProt O96028); type: biochemical
T1 sequence (O96028 whole entry): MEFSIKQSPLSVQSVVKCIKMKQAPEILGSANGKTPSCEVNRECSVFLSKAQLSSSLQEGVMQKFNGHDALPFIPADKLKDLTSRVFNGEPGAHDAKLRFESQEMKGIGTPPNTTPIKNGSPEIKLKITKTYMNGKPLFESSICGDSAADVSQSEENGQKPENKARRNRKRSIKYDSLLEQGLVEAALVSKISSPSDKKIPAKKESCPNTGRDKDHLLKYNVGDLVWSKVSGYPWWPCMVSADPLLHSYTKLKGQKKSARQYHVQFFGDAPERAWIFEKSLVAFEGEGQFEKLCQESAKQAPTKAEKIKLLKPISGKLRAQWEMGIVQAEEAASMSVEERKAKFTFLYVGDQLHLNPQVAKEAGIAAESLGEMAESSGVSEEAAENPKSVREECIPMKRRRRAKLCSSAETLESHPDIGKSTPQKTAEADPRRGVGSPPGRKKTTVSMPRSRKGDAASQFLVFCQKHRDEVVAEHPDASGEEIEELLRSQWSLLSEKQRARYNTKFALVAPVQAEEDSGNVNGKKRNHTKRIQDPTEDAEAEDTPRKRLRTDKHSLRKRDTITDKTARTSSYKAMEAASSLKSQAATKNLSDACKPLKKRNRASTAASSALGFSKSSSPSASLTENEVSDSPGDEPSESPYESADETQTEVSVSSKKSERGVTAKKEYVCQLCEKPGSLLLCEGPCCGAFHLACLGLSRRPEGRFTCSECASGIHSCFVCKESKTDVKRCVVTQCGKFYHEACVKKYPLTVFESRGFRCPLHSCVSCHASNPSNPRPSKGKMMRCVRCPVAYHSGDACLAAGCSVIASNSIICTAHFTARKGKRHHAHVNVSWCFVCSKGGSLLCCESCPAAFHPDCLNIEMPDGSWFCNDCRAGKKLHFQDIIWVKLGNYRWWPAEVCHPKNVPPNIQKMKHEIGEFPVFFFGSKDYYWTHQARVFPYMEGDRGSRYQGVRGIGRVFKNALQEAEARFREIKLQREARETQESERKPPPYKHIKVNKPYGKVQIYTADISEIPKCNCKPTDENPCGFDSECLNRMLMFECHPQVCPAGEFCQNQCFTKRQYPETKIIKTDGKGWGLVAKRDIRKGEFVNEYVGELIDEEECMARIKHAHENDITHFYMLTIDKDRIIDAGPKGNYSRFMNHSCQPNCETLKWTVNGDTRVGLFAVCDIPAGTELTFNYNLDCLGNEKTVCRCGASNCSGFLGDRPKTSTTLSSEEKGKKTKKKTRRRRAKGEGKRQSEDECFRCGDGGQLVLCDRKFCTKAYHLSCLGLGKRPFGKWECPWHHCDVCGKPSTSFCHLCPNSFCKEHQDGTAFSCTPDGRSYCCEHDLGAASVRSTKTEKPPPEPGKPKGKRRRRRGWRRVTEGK

[7] = molecular target: Mitogen-activated protein kinase 10 (Homo sapiens, UniProt P53779); experiment: Dose response biochemical screening assay for inhibitors of c-Jun N-Terminal Kinase 3 (JNK3). [Related pubchem assays: 746 ]
Chain of Mitogen-activated protein kinase 10 (P53779 whole entry): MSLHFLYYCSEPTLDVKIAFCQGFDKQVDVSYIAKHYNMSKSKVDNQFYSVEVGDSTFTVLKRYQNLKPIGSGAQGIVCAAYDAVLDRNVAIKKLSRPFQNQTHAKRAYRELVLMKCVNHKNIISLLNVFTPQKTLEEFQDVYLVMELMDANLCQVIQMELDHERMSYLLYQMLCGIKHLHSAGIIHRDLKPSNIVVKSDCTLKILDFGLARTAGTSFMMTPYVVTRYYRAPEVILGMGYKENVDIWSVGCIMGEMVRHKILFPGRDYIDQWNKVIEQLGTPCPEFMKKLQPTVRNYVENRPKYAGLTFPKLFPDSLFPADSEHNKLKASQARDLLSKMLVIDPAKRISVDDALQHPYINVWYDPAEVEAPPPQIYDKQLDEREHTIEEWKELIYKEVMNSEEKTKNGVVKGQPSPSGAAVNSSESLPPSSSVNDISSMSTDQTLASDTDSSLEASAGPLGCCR

[8] = molecular target: T2, 1-phosphatidylinositol 4,5-bisphosphate phosphodiesterase beta-3 (Homo sapiens, UniProt Q01970); experiment: Fluorescence-based biochemical high throughput dose response assay to identify inhibitors of phospholipase C isozymes (PLC-B3).
T2 sequence (Q01970 whole entry): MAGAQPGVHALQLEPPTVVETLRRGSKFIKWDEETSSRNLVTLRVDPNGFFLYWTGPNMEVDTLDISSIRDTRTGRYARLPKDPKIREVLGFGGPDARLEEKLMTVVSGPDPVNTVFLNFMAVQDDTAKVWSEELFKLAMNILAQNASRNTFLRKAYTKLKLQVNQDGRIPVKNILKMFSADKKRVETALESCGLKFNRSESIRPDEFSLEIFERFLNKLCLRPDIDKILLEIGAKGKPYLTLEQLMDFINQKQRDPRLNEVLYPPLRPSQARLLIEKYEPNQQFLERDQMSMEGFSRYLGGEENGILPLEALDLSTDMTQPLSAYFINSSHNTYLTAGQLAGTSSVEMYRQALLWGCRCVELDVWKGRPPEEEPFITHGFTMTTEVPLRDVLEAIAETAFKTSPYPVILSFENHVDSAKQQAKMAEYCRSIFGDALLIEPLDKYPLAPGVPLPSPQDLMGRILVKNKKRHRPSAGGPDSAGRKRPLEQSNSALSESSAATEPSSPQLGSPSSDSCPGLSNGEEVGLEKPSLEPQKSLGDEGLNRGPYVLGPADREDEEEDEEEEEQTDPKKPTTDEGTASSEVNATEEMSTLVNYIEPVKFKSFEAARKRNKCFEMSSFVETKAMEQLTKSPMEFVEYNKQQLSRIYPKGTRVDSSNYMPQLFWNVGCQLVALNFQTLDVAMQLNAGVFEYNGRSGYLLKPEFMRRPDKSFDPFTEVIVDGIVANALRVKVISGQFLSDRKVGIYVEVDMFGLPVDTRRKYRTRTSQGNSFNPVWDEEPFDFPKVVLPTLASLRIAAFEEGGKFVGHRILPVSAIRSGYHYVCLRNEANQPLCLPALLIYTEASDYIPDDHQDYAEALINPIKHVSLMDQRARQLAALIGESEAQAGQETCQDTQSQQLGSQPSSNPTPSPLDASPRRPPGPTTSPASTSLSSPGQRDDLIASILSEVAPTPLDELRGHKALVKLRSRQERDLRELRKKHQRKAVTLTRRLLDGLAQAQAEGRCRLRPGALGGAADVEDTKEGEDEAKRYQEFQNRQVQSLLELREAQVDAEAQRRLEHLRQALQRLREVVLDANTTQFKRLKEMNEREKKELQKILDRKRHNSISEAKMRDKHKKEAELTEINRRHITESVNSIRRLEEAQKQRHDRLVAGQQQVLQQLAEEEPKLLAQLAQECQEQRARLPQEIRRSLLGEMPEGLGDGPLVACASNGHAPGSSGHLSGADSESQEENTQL

[9] = molecular target: T3, 1-phosphatidylinositol 4,5-bisphosphate phosphodiesterase gamma-1 (Homo sapiens, UniProt P19174); experiment: Counterscreen for inhibitors of phospholipase C isozymes (PLC-B3): Fluorescence-based biochemical high throughput dose response assay to identify inhibitors of phospholipase C isozymes (PLC-gamma1).
T3 sequence (P19174 whole entry): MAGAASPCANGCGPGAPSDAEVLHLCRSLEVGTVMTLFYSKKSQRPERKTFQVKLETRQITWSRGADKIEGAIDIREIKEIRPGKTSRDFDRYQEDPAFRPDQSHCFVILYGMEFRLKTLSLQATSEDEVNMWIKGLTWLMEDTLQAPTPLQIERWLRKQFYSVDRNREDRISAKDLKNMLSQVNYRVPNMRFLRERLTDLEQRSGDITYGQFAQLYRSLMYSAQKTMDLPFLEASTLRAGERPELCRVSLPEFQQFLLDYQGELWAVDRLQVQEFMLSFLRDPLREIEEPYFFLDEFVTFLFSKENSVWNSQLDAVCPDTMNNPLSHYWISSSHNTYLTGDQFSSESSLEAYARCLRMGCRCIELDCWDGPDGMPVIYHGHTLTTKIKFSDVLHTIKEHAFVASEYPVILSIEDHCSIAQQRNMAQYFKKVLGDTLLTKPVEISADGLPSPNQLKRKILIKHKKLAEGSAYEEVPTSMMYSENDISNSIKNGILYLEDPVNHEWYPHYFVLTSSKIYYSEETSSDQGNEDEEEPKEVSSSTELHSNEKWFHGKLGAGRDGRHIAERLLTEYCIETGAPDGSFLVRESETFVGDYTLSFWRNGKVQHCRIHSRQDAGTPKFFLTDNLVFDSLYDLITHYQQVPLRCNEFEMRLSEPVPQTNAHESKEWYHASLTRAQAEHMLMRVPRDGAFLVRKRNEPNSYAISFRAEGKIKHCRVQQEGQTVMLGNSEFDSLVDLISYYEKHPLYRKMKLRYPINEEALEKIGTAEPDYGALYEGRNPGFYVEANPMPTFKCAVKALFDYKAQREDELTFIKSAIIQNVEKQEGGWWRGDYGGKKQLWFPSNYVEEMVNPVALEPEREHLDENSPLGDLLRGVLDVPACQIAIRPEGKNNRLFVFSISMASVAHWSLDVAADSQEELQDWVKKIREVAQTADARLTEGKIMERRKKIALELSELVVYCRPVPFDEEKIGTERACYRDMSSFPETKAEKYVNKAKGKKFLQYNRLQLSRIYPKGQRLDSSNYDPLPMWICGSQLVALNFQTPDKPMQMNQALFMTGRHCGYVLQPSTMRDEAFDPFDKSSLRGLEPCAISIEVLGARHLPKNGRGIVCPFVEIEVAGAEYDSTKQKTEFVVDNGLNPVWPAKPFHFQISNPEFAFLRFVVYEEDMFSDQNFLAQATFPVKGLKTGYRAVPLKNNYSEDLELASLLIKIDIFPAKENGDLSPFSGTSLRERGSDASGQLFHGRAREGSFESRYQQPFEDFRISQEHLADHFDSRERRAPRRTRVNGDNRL

Estrogen receptor beta [10] = molecular target: T4, Estrogen receptor beta (Homo sapiens, UniProt Q92731); experiment: blockers of SRC-3 recruitment to ERβ – biochemical, ELISA, streptavidin-HRP readout, orthogonal assay, confirmation (AID 1060)
T4 sequence (Q92731 whole entry): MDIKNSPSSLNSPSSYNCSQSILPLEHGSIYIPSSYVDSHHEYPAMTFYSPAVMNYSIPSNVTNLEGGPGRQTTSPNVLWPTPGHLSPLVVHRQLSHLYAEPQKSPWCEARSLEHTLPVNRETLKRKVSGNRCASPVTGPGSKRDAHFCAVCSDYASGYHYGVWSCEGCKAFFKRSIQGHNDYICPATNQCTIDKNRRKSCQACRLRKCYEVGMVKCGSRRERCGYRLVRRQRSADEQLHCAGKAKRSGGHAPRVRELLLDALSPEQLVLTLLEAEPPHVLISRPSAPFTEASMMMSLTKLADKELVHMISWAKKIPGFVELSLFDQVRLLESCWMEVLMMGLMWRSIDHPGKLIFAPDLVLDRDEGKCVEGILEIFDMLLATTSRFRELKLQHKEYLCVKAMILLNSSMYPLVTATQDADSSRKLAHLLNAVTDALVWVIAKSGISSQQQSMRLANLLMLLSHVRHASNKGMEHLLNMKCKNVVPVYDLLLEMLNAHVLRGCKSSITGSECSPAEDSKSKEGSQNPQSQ

[11] = molecular target: DNA dC->dU-editing enzyme APOBEC-3G (Homo sapiens, UniProt Q9HC16); type: functional;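 note: Dose-response counterscreen measuring inhibition of APOBEC3G DNA deaminase activity, run while confirming APOBEC3A inhibitors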
Chain of DNA dC->dU-editing enzyme APOBEC-3G (Q9HC16 whole entry): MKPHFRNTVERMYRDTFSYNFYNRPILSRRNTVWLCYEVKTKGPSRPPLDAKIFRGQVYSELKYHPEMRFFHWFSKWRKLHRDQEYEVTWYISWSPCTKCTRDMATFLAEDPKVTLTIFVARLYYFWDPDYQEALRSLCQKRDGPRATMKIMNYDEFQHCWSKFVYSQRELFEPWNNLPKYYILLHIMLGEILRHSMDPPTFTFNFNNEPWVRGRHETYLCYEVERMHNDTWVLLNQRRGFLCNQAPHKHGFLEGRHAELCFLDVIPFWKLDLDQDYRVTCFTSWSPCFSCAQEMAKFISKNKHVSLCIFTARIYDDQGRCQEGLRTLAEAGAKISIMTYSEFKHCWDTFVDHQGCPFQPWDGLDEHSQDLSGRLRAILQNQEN

[12] = molecular target: DNA dC->dU-editing enzyme APOBEC-3A (Homo sapiens, UniProt P31941); experiment: Dose Response confirmation of small molecule APOBEC3A DNA Deaminase Inhibitors via a fluorescence-based single-stranded DNA deaminase assay. [Related pubchem assays (depositor defined):AID493011, AID493024]; type: functional
Chain of DNA dC->dU-editing enzyme APOBEC-3A (P31941 whole entry): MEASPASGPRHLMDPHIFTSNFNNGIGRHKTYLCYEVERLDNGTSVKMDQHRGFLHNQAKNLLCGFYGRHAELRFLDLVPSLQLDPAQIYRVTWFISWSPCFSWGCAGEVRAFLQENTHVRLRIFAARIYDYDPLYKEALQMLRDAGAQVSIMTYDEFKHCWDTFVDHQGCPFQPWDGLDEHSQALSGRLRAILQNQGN

Estrogen receptor beta [13] = molecular target: T4, Estrogen receptor beta
Paired box protein Pax-8 = Paired box protein Pax-8 (Homo sapiens, UniProt Q06710); experiment: PAX8 transcriptional activity inhibition in RMG-I – RMG-I cells, luciferase, cherry-pick, dose response (AID 687027); type: functional, cell-based;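 note: luciferase reporter driven by Pax8 target thyroperoxidase promoter measured by SteadyGlo luminescence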
Chain of Paired box protein Pax-8 (Q06710 whole entry): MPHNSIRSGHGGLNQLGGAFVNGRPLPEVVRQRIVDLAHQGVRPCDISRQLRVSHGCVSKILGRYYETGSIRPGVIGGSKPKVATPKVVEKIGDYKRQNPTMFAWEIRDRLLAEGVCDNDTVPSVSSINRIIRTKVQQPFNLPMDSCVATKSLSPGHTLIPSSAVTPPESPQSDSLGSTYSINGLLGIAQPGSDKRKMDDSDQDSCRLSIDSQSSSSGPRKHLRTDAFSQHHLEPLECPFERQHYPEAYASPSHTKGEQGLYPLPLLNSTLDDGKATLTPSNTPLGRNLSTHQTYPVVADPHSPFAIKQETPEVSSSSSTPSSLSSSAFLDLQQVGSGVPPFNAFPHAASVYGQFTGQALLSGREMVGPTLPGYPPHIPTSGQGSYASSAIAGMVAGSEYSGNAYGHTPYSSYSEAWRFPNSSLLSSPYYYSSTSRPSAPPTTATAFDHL

[14] = OVCAR8 cell viability loss – plate reader, dry powder samples, PAX8 project, dose response (AID 743197); type: functional, cell-based; conditions: OVCAR-8
[15] = OVCAR-3 cell viability loss – plate reader, dry powder samples, PAX8 inhibitor project, dose response (AID 743044); type: functional, cell-based

With `CCOC(=O)N1CCN(Cc2nc(N)nc(Nc3ccc(Oc4ccccc4)cc3)n2)CC1` the IC50 [1] was > 20 µM (inactive).
For `CCN=c1ccc(Br)cc(C(=O)/C=C/c2ccc3c(c2)OCO3)c1O`, the CC50 [2] was 32.6 µM (active), the IC50 [1] was > 20 µM (inactive) and the CC50 [3] was 13.8 µM (active).
For `CCCCCNc1nc(NCCCO)c(C#N)c2c1CN(C)CC2`, the IC50 [4] was > 83.3 µM (inactive), the IC50 [5] was > 109 µM (inactive) and the AC50 [6] was > 20 µM (inactive).
For `CCOC(=O)CSc1nc2c(sc3ccccc32)c(=O)n1CCCN1CCOCC1`, the IC50 [7] was 40 µM (not active).
With `O=C(NCc1ccccc1)c1[nH]nnc1-c1ccccc1O` the IC50 [8] was > 122 µM (inactive) and the IC50 [9] was 108 µM (inactive).
With `O=C1N=C(S)SC1=C1CCCC1` the IC50 (Estrogen receptor beta [10]) was 0.24 µM (not active), the IC50 [8] was > 122 µM (inactive) and the IC50 [11] was 7.39 µM (active). For the same molecule, the IC50 [12] was 5.61 µM (active), the IC50 (Estrogen receptor beta [13]) was > 50 µM (not active) and the IC50 [9] was 47.5 µM (inactive).
In the case of `COC(=O)c1c(NC(=O)Cc2cccs2)sc(C)c1C`, the IC50 [7] is reported as 34.8 µM (not active).
For `CCOC(=O)c1c(NC(=O)CSc2nnc(-c3ccco3)o2)sc(C)c1C`, the IC50 [4] was > 83.3 µM (inactive) and the IC50 [5] was > 109 µM (inactive).
For `O=c1[nH]c(=S)c2c(n1-c1ccccc1)CCC2`, the IC50 [7] was 76 µM (not active).
For `FC(F)(F)c1cnc(Oc2ccccc2-c2nnc(-c3ccc(Cl)cc3)o2)c(Cl)c1`, the IC50 [8] was > 123 µM (inactive) and the IC50 [9] was > 123 µM (inactive).
With `Cc1nnc2sc(SCC(=O)Nc3ccc(Br)cc3)nn2c1=O` the IC50 [4] was > 83.3 µM (inactive) and the IC50 [5] was > 109 µM (inactive).
For `C[C@@H]1CCCCO[C@H](CN(C)Cc2ccc(C(F)(F)F)cc2)[C@H](C)CN([C@H](C)CO)C(=O)c2cc(NC(=O)c3ccccc3)ccc2O1`, the AC50 (Paired box protein Pax-8) was 10.1 µM (active), the AC50 [14] was 45.2 µM (active) and the AC50 [15] was 43.7 µM (active).
